According to patent publication US6492333B1, “Treatment of myeloma bone disease with proteasomal and NF-κB activity inhibitors” (Osteoscreen, Inc., priority 1999, dated 2002):
Where a SMILES comes first, the peptide text is derived from it. The star is where a group is joined. Cbz = O=C(OCc1ccccc1)*; OtBu = CC(C)(C)O*

Tests used:
U266BL cells = assay: Viability of myeloma cells by trypan blue dye-exclusion assay (U266BL); assay type: cell-based, human; settings: 24 hours
Experimental: (§1) In another experiment, the direct effect of the proteasomal inhibitor PSI and other NF-kB inhibitors on the viability in human myeloma cells and 5TGM-1 cells in vitro was evaluated.
(§2) 1×10^6 human myeloma (IM9 and U266BL) cells or 5TGM-1 cells were plated out in the presence and/or absence of PSI and other NF-κB inhibitors. After 24 hours, the viability of the myeloma cells was assessed by the trypan blue dye-exclusion assay. These compounds, at low (submicromolar) concentrations, markedly decrease the viability of both human and murine myeloma cells in culture.

human myeloma IM-9 cells = assay: Viability of myeloma cells by trypan blue dye-exclusion assay (IM-9); assay type: cell-based; settings: 24 hours
Experimental: as §1, §2

5TGM1 cells = assay: Viability of myeloma cells by trypan blue dye-exclusion assay (5TGM-1); assay type: cell-based, murine; settings: 100 nM, 24 hours
Experimental: as §1, §2

5TGM-1 cells = assay: Serum tumor marker IgG2b in mice inoculated intravenously with 5TGM-1 cells; assay type: in vivo, C57BL/KwLaRij mice; settings: PSI 5 mg/kg/day subcutaneously; sera on days 0, 7, 14 and 18
Experimental: Eight (8) C57BL/KwLaRij mice were each injected with 1×10^6 5TGM-1 cells through the tail vein. They were then randomized into two groups, one group dosed with PSI (5 mg/kg/day subcutaneously) and the other group (untreated control) received only vehicle. Sera were obtained at the start (day 0) and on days 7, 14 and 18 followed by assay for IgG2b.

[1] = test system: 5TGM-1 cultured myeloma cells; assay: Hind-limb paralysis after intravenous 5TGM-1 myeloma cell inoculation; assay type: in vivo, C57BL/KaLwRij mice; settings: PSI 5 mg/kg/day subcutaneously for 28 days; untreated mice all paralysed by at least day 27
Experimental: Ten (10) C57BL/KaLwRij mice were inoculated intravenously with 1×10^6 5TGM-1 cultured myeloma cells. When untreated, the mice invariably develop hind-limb paralysis after 26-30 days.
One group of five (5) mice were injected with PSI (5 mg/kg/day) subcutaneously over their flank portion for 28 days and the other group received only vehicle. […] All of the untreated mice had developed hind-limb paralysis by at least day 27. In contrast, none of the PSI-treated group developed paraplegia before at least day 33.

[2] = test system: 5TGM-1 cultured myeloma cells; assay: PSI injected into subcutaneous 5TGM-1 myeloma tumors in mice; assay type: in vivo, C57BL/KaLwRij mice
Experimental: Nine (9) C57BL/KaLwRij mice were inoculated with 0.5×10^6 5TGM-1 cultured myeloma cells which were injected subcutaneously over the flank.
One group had PSI injected directly into the tumors (˜5 mg/kg/day) and the other group had only vehicle injected into the tumors.

[3] = relative to MG-132, MG-115 and MG-341

SMILES: S=C(S)N1CCCC1 [PDTC, 1-pyrrolidine carbothiotic acid]
- viability (U266BL cells; 0.1 μM): less than 40%

SMILES: O=C(NC1=CC(=O)c2ccccc2C1=O)c1ccccc1 [PPM-18]
- effect on viability as compared to control (U266BL cells; concentration not given): does not appear to affect viability appreciatively
- effect on viability (human myeloma IM-9 cells; concentration not given): relatively ineffective

SMILES: CC[C@H](C)[C@H](NC(=O)OCc1ccccc1)C(=O)N[C@@H](CCC(=O)OC(C)(C)C)C(=O)N[C@@H](C)C(=O)N[C@H](C=O)CC(C)C [PSI, N-carbobenzoyl-Ile-Glu-(OtBu)-Ala-Leu-CHO] (Cbz-IE(OtBu)AL-aldehyde)
- viability (5TGM1 cells): ~0%
- tumor marker IgG2b in sera (5TGM-1 cells): markedly reduced
- time at which hind-limb paralysis (paraplegia) developed [1]: ≥ 33 days
- viability (U266BL cells; 0.01 μM): less than 20%
- viability (human myeloma IM-9 cells; 0.01 μM): marked diminution in viability
- survival and signs of tumor ([2]; 4 months after treatment, PSI ~5 mg/kg/day intratumoral): alive and well with no signs of tumor
- size of the tumors ([2]; PSI ~5 mg/kg/day injected directly into subcutaneous tumors, treatment commenced on day 35): decreased markedly
- health of treated mice ([2]; up until 3 months after tumor inoculation, even though treatment was discontinued, PSI ~5 mg/kg/day intratumoral): remained healthy

SMILES: C=C(C)[C@]12C[C@@H](C)[C@@]34O[C@](Cc5ccccc5)(O[C@@H]1[C@@H]3C=C(COC(=O)Cc1ccc(O)c(OC)c1)C[C@]1(O)C(=O)C(C)=C[C@@H]41)O2 [resiniferatoxin]
- activity in the ABA assay [3]: less active
